Laboratory results taken from patent US20260262643A1, “HERBICIDAL BENZOXAZINES” (FMC CORPORATION, priority 2022, published 2026).

Key:
[1] = test system: ragweed; assay: Test C preemergence; assay type: in vivo, Ambrosia artemisiifolia; conditions: preemergence, 0 to 100 scale (0 no effect, 100 complete control)
Outline: (§1)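 Pre: seeds in loam/sand, directed soil spray. Post: 1–2 leaf plants, 2–10 cm. Cmpd in non-phytotoxic solvent + surfactant. Greenhouse 10 d; visual rating vs untreated, 0 = none, 100 = complete control.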

[2] = test system: green foxtail; assay: Test C postemergence; assay type: in vivo, Setaria viridis; conditions: postemergence, 10 days
Outline: as §1

[3] = test system: wheat; assay: Test C preemergence; assay type: in vivo, Triticum aestivum; conditions: preemergence, 0 to 100 scale (0 no effect, 100 complete control)
Outline: as §1

[4] = test system: kochia; assay: Test C preemergence; assay type: in vivo, Bassia scoparia; conditions: preemergence, 0 to 100 scale (0 no effect, 100 complete control)
Outline: as §1

[5] = test system: kochia; assay: Test C postemergence; assay type: in vivo, Bassia scoparia; conditions: postemergence, 10 days
Outline: as §1

[6] = test system: wheat; assay: Test C postemergence; assay type: in vivo, Triticum aestivum; conditions: postemergence, 10 days
Outline: as §1

[7] = test system: horseweed; assay: Test C postemergence; assay type: in vivo, Erigeron canadensis; conditions: postemergence, 10 days
Outline: as §1

[8] = test system: pigweed, palmer; assay: Test C preemergence; assay type: in vivo, Amaranthus palmeri; conditions: preemergence, 0 to 100 scale (0 no effect, 100 complete control)
Outline: as §1

[9] = test system: ducksalad; assay: Test D flooded paddy test; assay type: in vivo, Heteranthera limosa; conditions: 250 g ai/ha, applied to paddy water, visual rating after 13 to 14 days, scale 0 to 100 (0 no effect, 100 complete control)
Outline: (§2)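 Post-flood water application at the 2-leaf stage; 3 cm flood depth kept constant; visual control rating 0–100 after 13–14 days greenhouse growth.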

[10] = test system: blackgrass; assay: Test C postemergence; assay type: in vivo, Alopecurus myosuroides; conditions: postemergence, 10 days
Outline: as §1

[11] = test system: rice; assay: Test D flooded paddy test; assay type: in vivo, Oryza sativa; conditions: 250 g ai/ha, applied to paddy water, visual rating after 13 to 14 days, scale 0 to 100 (0 no effect, 100 complete control)
Outline: as §2

[12] = test system: oat, wild; assay: Test C preemergence; assay type: in vivo, Avena fatua; conditions: preemergence, 0 to 100 scale (0 no effect, 100 complete control)
Outline: as §1

[13] = test system: galium; assay: Test C postemergence; assay type: in vivo, Galium aparine; conditions: postemergence, 10 days
Outline: as §1

[14] = test system: pigweed, palmer; assay: Test C postemergence; assay type: in vivo, Amaranthus palmeri; conditions: postemergence, 10 days
Outline: as §1

[15] = test system: barnyardgrass; assay: Test D flooded paddy test; assay type: in vivo, Echinochloa crus-galli; conditions: 250 g ai/ha, applied to paddy water, visual rating after 13 to 14 days, scale 0 to 100 (0 no effect, 100 complete control)
Outline: as §2

[16] = test system: barnyardgrass; assay: Test C preemergence; assay type: in vivo, Echinochloa crusgalli; conditions: preemergence, 0 to 100 scale (0 no effect, 100 complete control)
Outline: as §1

[17] = test system: soybean; assay: Test C preemergence; assay type: in vivo, Glycine max; conditions: preemergence, 0 to 100 scale (0 no effect, 100 complete control)
Outline: as §1

[18] = test system: corn; assay: Test C preemergence; assay type: in vivo, Zea mays; conditions: preemergence, 0 to 100 scale (0 no effect, 100 complete control)
Outline: as §1

[19] = test system: sedge, umbrella; assay: Test D flooded paddy test; assay type: in vivo, Cyperus difformis; conditions: 250 g ai/ha, applied to paddy water, visual rating after 13 to 14 days, scale 0 to 100 (0 no effect, 100 complete control)
Outline: as §2

[20] = test system: corn; assay: Test C postemergence; assay type: in vivo, Zea mays; conditions: postemergence, 10 days
Outline: as §1

[21] = test system: ragweed; assay: Test C postemergence; assay type: in vivo, Ambrosia artemisiifolia; conditions: postemergence, 10 days
Outline: as §1

[22] = test system: soybean; assay: Test C postemergence; assay type: in vivo, Glycine max; conditions: postemergence, 10 days
Outline: as §1

[23] = test system: ryegrass, Italian; assay: Test C postemergence; assay type: in vivo, Lolium multiflorum; conditions: postemergence, 10 days
Outline: as §1

[24] = test system: green foxtail; assay: Test C preemergence; assay type: in vivo, Setaria viridis; conditions: preemergence, 0 to 100 scale (0 no effect, 100 complete control)
Outline: as §1

[25] = test system: ryegrass, Italian; assay: Test C preemergence; assay type: in vivo, Lolium multiflorum; conditions: preemergence, 0 to 100 scale (0 no effect, 100 complete control)
Outline: as §1

[26] = test system: blackgrass; assay: Test C preemergence; assay type: in vivo, Alopecurus myosuroides; conditions: preemergence, 0 to 100 scale (0 no effect, 100 complete control)
Outline: as §1

[27] = test system: oat, wild; assay: Test C postemergence; assay type: in vivo, Avena fatua; conditions: postemergence, 10 days
Outline: as §1

[28] = test system: barnyardgrass; assay: Test C postemergence; assay type: in vivo, Echinochloa crusgalli; conditions: postemergence, 10 days
Outline: as §1

[29] = 125 g ai/ha, 0 to 100 scale, 0 no effect, 100 complete control
[30] = 500 g ai/ha, 0 to 100 scale (0 no effect, 100 complete control)

SMILES: Cc1cccc2c1O[C@@H](C)CN2C(=O)c1cccc(-n2cnc(N(C)S(C)(=O)=O)n2)c1 [Compound 299]
- Ragweed plant response rating ([1]; 500 g ai/ha): 100
- Ragweed plant response rating ([1]; Test C, 125 g ai/ha): 70
- Plant response rating, Foxtail, Green [2, 29]: 10
- Plant response rating, Foxtail, Green [2, 30]: 40
- Wheat plant response rating ([3]; 500 g ai/ha): 30
- Wheat plant response rating ([3]; Test C, 125 g ai/ha): 0
- Kochia plant response rating ([4]; 500 g ai/ha): 80
- Kochia plant response rating ([4]; Test C, 125 g ai/ha): 0
- Plant response rating, Kochia [5, 29]: 10
- Plant response rating, Kochia [5, 30]: 70
- Plant response rating, Wheat [6, 29]: 20
- Plant response rating, Wheat [6, 30]: 40
- Plant response rating, Horseweed [7, 29]: 10
- Plant response rating, Horseweed [7, 30]: 30
- Pigweed, Palmer plant response rating ([8]; 500 g ai/ha): 90
- Pigweed, Palmer plant response rating ([8]; Test C, 125 g ai/ha): 50
- Plant response rating, Ducksalad (Flood) [9]: 95
- Plant response rating, Blackgrass [10, 29]: 20
- Plant response rating, Blackgrass [10, 30]: 90
- Plant response rating, Rice (Flood) [11]: 0
- Oat, Wild plant response rating ([12]; 500 g ai/ha): 90
- Oat, Wild plant response rating ([12]; Test C, 125 g ai/ha): 0
- Plant response rating, Galium [13, 29]: 80
- Plant response rating, Galium [13, 30]: 90
- Plant response rating, Pigweed, Palmer [14, 29]: 40
- Plant response rating, Pigweed, Palmer [14, 30]: 60
- Plant response rating, Barnyardgrass (Flood) [15]: 0
- Barnyardgrass plant response rating ([16]; 500 g ai/ha): 80
- Barnyardgrass plant response rating ([16]; Test C, 125 g ai/ha): 10
- Soybean plant response rating ([17]; 500 g ai/ha): 0
- Soybean plant response rating ([17]; Test C, 125 g ai/ha): 0
- Corn plant response rating ([18]; 500 g ai/ha): 30
- Corn plant response rating ([18]; Test C, 125 g ai/ha): 0
- Plant response rating, Sedge, Umbrella (Flood) [19]: 25
- Plant response rating, Corn [20, 29]: 10
- Plant response rating, Corn [20, 30]: 20
- Plant response rating, Ragweed [21, 29]: 0
- Plant response rating, Ragweed [21, 30]: 0
- Plant response rating, Soybean [22, 29]: 60
- Plant response rating, Soybean [22, 30]: 100
- Plant response rating, Ryegrass, Italian [23, 29]: 70
- Plant response rating, Ryegrass, Italian [23, 30]: 90
- Foxtail, Green plant response rating ([24]; 500 g ai/ha): 100
- Foxtail, Green plant response rating ([24]; Test C, 125 g ai/ha): 60
- Ryegrass, Italian plant response rating ([25]; 500 g ai/ha): 90
- Ryegrass, Italian plant response rating ([25]; Test C, 125 g ai/ha): 70
- Blackgrass plant response rating ([26]; 500 g ai/ha): 70
- Blackgrass plant response rating ([26]; Test C, 125 g ai/ha): 30
- Plant response rating, Oat, Wild [27, 29]: 20
- Plant response rating, Oat, Wild [27, 30]: 60
- Plant response rating, Barnyardgrass [28, 29]: 10
- Plant response rating, Barnyardgrass [28, 30]: 50
